Data reported in patent US20220023274A1, “USE OF A BERBERIS AND RESVERATROL MIXTURE TO CONTROL DYSLIPIDEMIA” (priority 2018, published 2022).

What was measured:
[1] = tested on: Low-Density lipoprotein Receptor (LDL-R); test: Transcriptional expression of the LDL receptor in hepatocytes in vitro (Example 1, FIG. 1); type: cell-based; conditions: 24 hours, Berberine 5 μg/mL, Resveratrol 3 μM, each applied alone, vs CTRL (no treatments)
Description: It could be said that the concentration tested is bio-equivalent to that of Berberine with a concentration of 50% higher than that administered according to the work of Kong et to 2004. (Kong W, Wei J, Abidi P, Lin M, Inaba S, Li C, Wang Y, Wang Z, Si S, Pan H, 10 Wang S, Wu J, Wang Y, Li Z, Liu J, Jiang J D. Berberine is a novel cholesterol-lowering drug working through a unique mechanism distinct from statins. Nat Med. 2004 December; 10(12):1344-51)).
Resveratrol being without effect alone is therefore a synergy, never observed before. The innovation is therefore in having observed a synergy between resveratrol and berberine with resveratrol which enhances the effects of berberine in the expression of LDL-R. The results are summarized in FIG. 1.

LDL cholesterol = test: Case report: LDL cholesterol level under dietary supplementation (Example 9); type: in vivo, human; conditions: The patient, initial LDL cholesterol 3.91 mM; berberine 500 mg for 1 month; Revifast dosage as in examples 2-5
Method: […] The patient is […] and is classified borderline for the lipid profile with an LDL cholesterol level of 3.91 mM. In their dietary supplement scheme, they took a berberine 500 mg supplement separately for 1 month, taking lipoprotein levels to 3.4 mM. […] The quantities assumed by […] FG are such that the dosage used is that shown in examples 2-5.

plasma LDL concentration = test: Case reports of subjects (n=4): plasma LDL concentration, reduction compared to nontreated condition (FIG. 2); type: in vivo, human; conditions: n=4 subjects; berberine 500 mg alone or with 48 mg resveratrol (pure, or as 160 mg REVIFAST)
Description: Information were also collected from case reports of a number of subjects supplemented in their diet substantially as above.
As it can be seen, when the subjects are supplemented with berberine the levels of LDL cholesterol were reduced. […] It is therefore believed that it is the way in which resveratrol is absorbed that influences the synergistic action of resveratrol to reduce LDL cholesterol by berberine.

transcription of the LDL receptor (effect in words) [1]	Structure (SMILES)	LDL cholesterol level (plasma concentration) (LDL cholesterol) [mM]	effect on plasma LDL cholesterol (in words) (plasma LDL concentration)
no apparent effect	Oc1ccc(C=Cc2cc(O)cc(O)c2)cc1 [resveratrol, 3,5,4′-trihydroxystilbene]		
tends to increase	COc1ccc2cc3[n+](cc2c1OC)CCc1cc2c(cc1-3)OCO2 [Berberine]	3.4	reduced
